Assay results as given in patent US12503484B2, “Androstane derivatives with activity as pure or predominantly pure stimulators of SERCA2a for the treatment of heart failure” (Seismic Pharmaceuticals, priority 2019, dated 2025).
Entries after “also recorded” stand apart in the source; their conditions may differ. Read-outs that look alike come from different tables or passages of the source. Marks after values point to notes of the source that are not given here.

Assays:
[1] = molecular target: dog renal Na^+/K^+ ATPase (Canis lupus familiaris (Dog) (Canis familiaris), UniProt P50997); assay: biochemical; settings: IC50 inhibition of dog renal Na+/K+ ATPase, purified dog kidney enzyme;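 also: enzyme preincubated with inhibitor 10 min at 37 °C, then K^+ and ^32P-ATP added for 15 min, released ^32P counted, activity relative to untreated control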
Text: Inhibition of Dog Renal Na^+/K^+ ATPase Activity
The compounds were thus tested for their inhibitory effect on the canine renal Na^+/K^+ ATPase enzyme.
Kidneys were excised from 1-3 year-old male beagle dogs (WuXi AppTec, Suzhou Co., Ltd. 1318 Wuzhong Ave., Wuzhong District Suzhou, 215104 P.R. China) under pentobarbital anesthesia (Import Authorization from Italian Health Ministry 0009171-09/04/2015-DGSAF-COD_UO-P, 2015). Kidneys were sliced and the outer medulla was dissected and suspended (1 g/10 ml) in a sucrose-histidine solution containing 250 mM sucrose, 30 mM histidine, and 5 mM EDTA, pH 7.2. The tissue was homogenized by using an Ultra Turrax homogenizer. The sample was centrifuged at 6,000 g for 15 min. Next, the supernatant was decanted and centrifuged at 48,000 g for 30 min. The pellet was suspended in the sucrose-histidine buffer and incubated for 20 min with a sodium-dodecyl-sulphate (SDS) solution dissolved in a gradient buffer containing 25 mM imidazole and 1 mM EDTA, pH 7.5. The sample was layered on the top of a sucrose discontinuous gradient (10, 15, and 29.4%) and centrifuged at 60,000 g for 115 min. The pellet was suspended in the gradient buffer.
Increasing concentrations of the standard ouabain, or tested compound, were incubated with 0.3 μg of purified dog kidney enzyme for 10 min at 37° C. in 120 μl final volume of a medium containing 140 mM NaCl, 3 mM MgCl2, 50 mM Hepes-Tris, 3 mM ATP, pH 7.5. Then, 10 μl of a solution containing 10 mM KCl and 20 nCi of ^32P-ATP (3-10 Ci/mmol, Perkin Elmer) were added. The reaction was allowed to continue for 15 min at 37° C. and then stopped by acidification with 20% v/v ice-cold perchloric acid. ^32P was separated by centrifugation with activated Charcoal (Norit A, Serva) and the radioactivity was counted. The inhibitory activity was expressed as percent of the control samples carried out in the absence of ouabain, or tested compound.

[2] = tested on: guinea-pig ventricular myocytes; assay: Action potential measurements in guinea-pig ventricular myocytes; format: cell-based; settings: 1 μM; for action potential duration (APD90) / diastolic membrane potential (Ediast) / maximum depolarization velocity (dV/dtmax) / rate-dependency of each AP parameter: 0.5-1-2-4 Hz; for slope of linear fit STV vs mean APD90: all pacing rates pooled; for short term APD variability (STV) and its dependency on mean APD: pacing rates 0.5-1-2 and 4 Hz
Procedure: (§1) The compounds were characterized for their effect on (i) SR Ca^2+ uptake function and (ii) action potential (AP) in myocytes freshly dissociated from rat and guinea-pig ventricles, respectively, by retrograde coronary perfusion with enzymatic solution (Rocchetti M et al., J Pharmacol Exper Therap 2005, 313(1):207-215).
Cvie216 and Cvie214 effects on action potential parameters were evaluated at the concentration of 1 μM modulating SERCA2a in guinea-pig myocytes. The action potential (AP) contour provides a first-line estimate of the integrated function of membrane ion channels, and its changes may disclose ancillary actions—potentially resulting in untoward effects of the compound. To increase sensitivity of the AP contour as a reporter, effects on the rate-dependency of AP parameters were also tested, thus providing a multiparametric (more stringent) approach. AP were recorded in guinea-pig ventricular myocytes because the AP contour reproduces the human AP. […] Statistical analysis was performed by a “group comparison” model.
APs were recorded in normal Tyrode's solution at 36.5° C. in guinea-pig ventricular myocytes. The following parameters were measured at 4 stimulation rates (0.5-1-2-4 Hz): diastolic membrane potential (Ediast), maximum depolarization velocity (dV/dtmax), action potential duration (APD at 90% of repolarization). Short term APD variability (STV) during steady-state pacing, an index of repolarization stability, was measured as the sum of absolute orthogonal deviations from the identity line in the APDnfAPDn+1 plot (Poincare plot) (Altomare C et al., Circulation A&E 2015, 8:1265-1275).

SERCA2a = SERCA2a (Cavia porcellus, UniProt A0A286XD73); assay: SERCA2a ATPase activity in heart-derived SR microsomes from normal guinea-pig; format: biochemical
Chain of SERCA2a (A0A286XD73 1-997): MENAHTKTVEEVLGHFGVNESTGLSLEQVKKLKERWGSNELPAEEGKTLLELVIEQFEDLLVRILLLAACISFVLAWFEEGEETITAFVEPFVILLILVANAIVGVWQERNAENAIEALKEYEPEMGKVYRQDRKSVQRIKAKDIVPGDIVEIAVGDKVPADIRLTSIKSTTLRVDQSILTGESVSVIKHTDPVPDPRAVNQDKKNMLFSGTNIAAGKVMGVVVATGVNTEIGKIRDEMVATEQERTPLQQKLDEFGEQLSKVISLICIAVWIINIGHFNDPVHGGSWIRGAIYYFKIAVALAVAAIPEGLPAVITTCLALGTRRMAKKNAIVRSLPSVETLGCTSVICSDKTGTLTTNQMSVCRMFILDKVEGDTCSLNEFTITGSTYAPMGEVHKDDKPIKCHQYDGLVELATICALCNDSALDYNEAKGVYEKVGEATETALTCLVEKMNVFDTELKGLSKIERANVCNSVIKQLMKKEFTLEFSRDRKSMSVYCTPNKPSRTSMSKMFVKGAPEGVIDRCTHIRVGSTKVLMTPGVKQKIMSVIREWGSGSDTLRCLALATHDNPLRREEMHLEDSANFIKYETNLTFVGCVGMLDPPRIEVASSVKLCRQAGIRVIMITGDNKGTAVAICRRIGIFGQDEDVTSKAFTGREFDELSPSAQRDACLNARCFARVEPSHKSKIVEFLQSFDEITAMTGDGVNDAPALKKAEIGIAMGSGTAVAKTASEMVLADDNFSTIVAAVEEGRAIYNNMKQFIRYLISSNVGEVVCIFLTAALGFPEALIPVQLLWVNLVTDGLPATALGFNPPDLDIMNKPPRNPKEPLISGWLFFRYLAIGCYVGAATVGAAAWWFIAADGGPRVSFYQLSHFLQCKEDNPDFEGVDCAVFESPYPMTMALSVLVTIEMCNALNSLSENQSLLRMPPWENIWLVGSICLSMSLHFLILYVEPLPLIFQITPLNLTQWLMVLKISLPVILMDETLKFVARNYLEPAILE
Procedure: SERCA2a ATPase Activity in Heart-Derived SR Microsomes from Normal Quinea-Pig
SERCA2a activity was measured in vitro as ^32P-ATP hydrolysis at different Ca^2+ concentrations (100-4000 nM) in the absence and presence of the tested compounds, as described (Micheletti R. et al., Am J Card 2007, 99:24A-32A). Increasing concentrations of each compound (ranging from 1 to 200 nM) were pre-incubated with 2 μg of SERCA2a enriched microsomes for 5 min at 4° C. in 80 μl of a solution containing 100 mM KCl, 5 mM MgCl2, 1 μM A23187, 20 mM Tris, pH 7.5. […] SERCA2a-dependent activity was identified as the portion of total hydrolytic activity inhibited by 10 μM cyclopiazonic acid (Seidler N W et al., J Biol Chem. 1989, 264:17816-23).
Dose-response curves were fitted by using a sigmoidal equation and the activity at the maximal velocity (Vmax) and the Kd for Ca^2+ were calculated (Synergy Software KaleidaGraph 3.6). The effect of the compounds in normal guinea-pig preparations was expressed as % decrease of Kd Ca^2+ (implying an increase of affinity for Ca^2+) of a control sample run in the absence of compound (Table 2). […] Data are mean±SD, n=number of experiments, *at least p<0.05.

[3] = tested on: rat ventricular myocytes isolated from STZ rats; assay: SR Ca2+ uptake function in ventricular myocytes from STZ rats (loading protocol); format: cell-based; settings: 1 μM
Text: as §1
To test the effects of the compounds in a model of diastolic dysfunction, Sprague Dawley male rats (150-175 g) were made diabetic by a single tail vein injection of streptozotocin (STZ 50 mg/kg, Sigma-Aldrich). STZ was freshly prepared in 0.1 M sodium citrate buffer at pH 4.5. Fasting glycaemia was measured after 1 week and rats with values >300 mg/dl were considered diabetic. Drug effects on SR Ca^2+ uptake function were evaluated in isolated left ventricular myocytes 9 weeks after STZ injection. Myocytes were incubated for at least 30 min in the presence of a specific drug to guarantee its cell membrane permeation. Statistical analysis was performed by a “group comparison” model.
Drug effects on SR Ca^2+ uptake rate were evaluated with a SR “loading protocol” specifically devised to rule out the contribution of the Na/Ca exchanger (NCX) and to assess the uptake rate starting at low levels of SR Ca^2+ loading. Under voltage-clamp conditions, intracellular Ca^2+ concentration was dynamically measured by epifluorescence (Fluo4-AM). Membrane current, whose time-dependent component mainly reflected ICaL, was simultaneously recorded. The SR loading protocol consisted in emptying the SR by a brief caffeine pulse and then progressively refilling it by voltage steps activating Ca^2+ influx through the sarcolemmal Ca^2+ channel (ICaL). NCX was blocked by omission of Na^+ from intracellular and extracellular solutions. The procedure is in agreement with published methods, with minor modifications (Rocchetti M et al., J Pharmacol Exper Therap 2005, 313:207-215).
Drug effects on SR Ca^2+ uptake were analyzed by considering multiple parameters: the rate at which 1) Ca^2+ transient (CaT) amplitude and 2) the Ca^2+ induced Ca^2+ release (CICR) gain increased during the loading protocol, reflecting the rate at which the SR refilled and the gain of the system, 3) the time constant of cytosolic Ca^2+ decay (τdecay) within each pulse, reflecting net Ca^2+ transport rate (by SERCA2a) across the SR membrane (a decrease in τdecay corresponds to enhanced SR Ca^2+ uptake).

[4] = Acute toxicity in the mouse; settings: Albino Swiss CD-1, in vivo
Procedure: The acute toxicity of the tested compound CVie214-salt and CVie216-salt have been determined in the mouse (Albino Swiss CD-1, body weight 30 g). Compounds have been orally administered or intravenously injected at increasing doses to identify the dose causing 50% mortality. Mortality occurred within 30 min after the administration and survival after 24 h.
As comparison, the acute toxicity for the reference compounds Digoxin and Istaroxime were also included. Digoxin refers to literature data (www.lookchem.com, Reference for Digoxin intravenous: Afifi A M, Ammar E M. Pharmacological Research Communications. Vol. 6, Pg. 417, 1974; Reference for Digoxin oral: Archives Internationales de Pharmacodynamie et de Therapie. Vol. 153, Pg. 436, 1965) (Table 3).

STZ diabetic rats = assay: Haemodynamics in streptozotocin diabetic rats (echocardiography); format: in vivo, rat; settings: after 15 min IV infusion 0.2 mg/kg/min
Procedure: CVie214 and CVie216 were tested in a diabetic rat model. Briefly, rats were injected with streptozotocin (STZ). After 7-9 weeks from STZ injection, rats were submitted to transthoracic echocardiographic and Doppler evaluation performed under urethane anesthesia. Two-dimensionally guided M-mode recordings were used to obtain short-axis measurements of left ventricular end-diastolic diameter (LVEDD), left ventricular end-systolic diameter (LVESD), posterior (PW) and septal (SW) diastolic wall thickness according to the American Society of Echocardiography guidelines (Lang R M et al., Eur J Echocardiography 2006, 7:79-108). Fractional shortening was calculated as FS=(LVEDD−LVESD)/LVEDD. Relative wall thickness was calculated as PWTd+IVSTd/LVEDD. Mitral inflow was measured by pulsed Doppler at the tips of mitral leaflets from an apical 4-chamber view to obtain early and late filling velocities (E, A) and deceleration time of early filling velocity (DT). The deceleration slope was calculated as E/DT ratio. The mitral deceleration index was calculated as DT/E ratio. Tissue Doppler Imaging (TDI) was evaluated from the apical 4-chamber view to record septal mitral annular movements, i.e., peak myocardial systolic (s′) and early and late diastolic velocity (e′ and a′).
After baseline hemodynamic measurements were taken, the rats were administered Digoxin, CVie214, CVie216 and compared to control. Digoxin, used as reference drug, was intravenously infused at 0.11 mg/kg/min for 15 min and echocardiographic parameters measured after 1 h. CVie214-salt and CVie216-salt were intravenously infused in STZ diabetic rats at 0.2 mg/kg/min and echocardiographic parameters were measured after 15 min and 30 min.
Tables 4-6 show the haemodynamic parameters in STZ diabetic rats for Digoxin, CVie214-salt, and Cvie216-salt.

[5] = read-out: Kd Ca2+ (nM) mean ± SD, compound 1 nM
[6] = read-out: Kd Ca2+ (nM) mean ± SD, compound 10 nM
[7] = read-out: Kd Ca2+ (nM) mean ± SD, compound 100 nM
[8] = read-out: Kd Ca2+ (nM) mean ± SD, compound 200 nM
[9] = compound 10 nM, read-out: Kd Ca2+ (nM) mean ± SD
[10] = compound 100 nM, read-out: Kd Ca2+ (nM) mean ± SD

SMILES | IC50 [1] [nM] | Kd (SERCA2a; [5]) [nM] | Kd (SERCA2a; [6]) [nM] | Kd (SERCA2a; [7]) [nM] | Kd (SERCA2a; [8]) [nM] | % change in Ca2+ Kd vs control (negative = decrease) (SERCA2a; compound 100 nM) | % change in Ca2+ Kd vs control (negative = decrease) (SERCA2a; compound 200 nM) [%*] | % change in Ca2+ Kd vs control (negative = decrease) (SERCA2a; compound 10 nM) [%*] | further results
C[C@]12CC[C@H](CC(=O)O)CC1C(O)CC1C2CC[C@]2(C)C(=O)CCC12 (stereo in doubt) [CVie216, 2-(6beta-hydroxy-17-oxoandrostane-3-yl) acetic acid] | > 100000 | 529 ± 75.8 | 465 ± 73.4 | 443 ± 85.1 | 463 ± 76.3 | – | – | – | action potential duration (APD90) [2]: did not affect; diastolic membrane potential (Ediast) [2]: did not affect; maximum depolarization velocity (dV/dtmax) [2]: did not affect; rate-dependency of each AP parameter [2]: did not affect; slope of linear fit STV vs mean APD90 [2]: 0.009; short term APD variability (STV) and its dependency on mean APD [2]: not significantly affected; Ca2+ transient (CaT) amplitude / rate of CaT increment during SR reloading [3]: statistically significant; also recorded: increased; Ca2+ uptake by the SR [3]: significantly increased; Ca2+-induced Ca2+ release (CICR) gain [3]: increase; time constant of Ca2+ decay (τdecay) [3]: reduction
C[C@]12CC/C(=N/OCCN)C[C@@H]1C(=O)C[C@@H]1[C@@H]2CC[C@]2(C)C(=O)CC[C@@H]12 [Istaroxime, (3Z,5a)-3-[(2-aminoethoxy)imino]androstane-6,17-dione, reference compound] | 140 | – | – | – | – | – | – | – | LD50 at 24 h ([4]; iv): 29 to 32 mg/kg; LD50 at 24 h ([4]; oral, os): 200 mg/kg; Kd (SERCA2a; compound 1 nM, read-out: Kd Ca2+ (nM) mean ± SD): 524 ± 57.4 nM; Kd (SERCA2a; [9]): 464 ± 52.4 nM; Kd (SERCA2a; [10]): 462 ± 59.1 nM
C[C@]12CC[C@H](CCCC(=O)O)CC1[C@@H](O)CC1C2CC[C@]2(C)C(=O)CCC12 (stereo partly drawn) [CVie214, 4-(6alpha-hydroxy-17-oxoandrostane-3-yl) butyric acid] | > 100000 | 474 ± 40.4 | 467 ± 62.4 | 427 ± 48.9 | 409 ± 60.1 | – | – | – | action potential duration (APD90) [2]: did not affect; diastolic membrane potential (Ediast) [2]: did not affect; maximum depolarization velocity (dV/dtmax) [2]: did not affect; rate-dependency of each AP parameter [2]: did not affect; slope of linear fit STV vs mean APD90 [2]: 0.014; short term APD variability (STV) and its dependency on mean APD [2]: not significantly affected; Ca2+ transient (CaT) amplitude / rate of CaT increment during SR reloading [3]: failed to significantly increase; Ca2+ uptake by the SR [3]: significantly increased; Ca2+-induced Ca2+ release (CICR) gain [3]: affected by the drug as expected from SERCA2a enhancement; time constant of Ca2+ decay (τdecay) [3]: close to significance; also recorded: affected by the drug as expected from SERCA2a enhancement; HR heart rate (STZ diabetic rats): modestly, but significantly, increased; s′ TDI contraction velocity (STZ diabetic rats): modestly, but significantly, increased
C[C@]12CC[C@H](CCC3CCNCC3)CC1[C@@H](CO)[C@@H](O)[C@@H]1[C@@H]2CC[C@]2(C)C(=O)CC[C@@H]12 (stereo partly drawn) [CVie412, 3beta-[2-(piperidin-4-yl)ethyl]-6alpha-hydroxymethyl-7alpha-hydroxyandrostane-17-one] | 3000 | – | – | 363 ± 74.1 | 361 ± 76.3 | −19.1% | −19.6 | – | –
C[C@]12CC[C@H](CCC3CCNCC3)CC1[C@@H](O)C[C@@H]1[C@@H]2CC[C@]2(C)C(=O)CC[C@@H]12 (stereo partly drawn) [CVie212, 3beta-[2-(piperidin-4-yl)ethyl]-6alpha-hydroxyandrostane-17-one] | 3500 | – | 409 ± 121 | 406 ± 82.9 | – | −20.2%* | – | −19.6 | –
CCOC(=O)CCCCC[C@H]1CC[C@]2(C)C3CC[C@]4(C)C(=O)CCC4C3C[C@H](O)C2C1 (stereo partly shown) [CVie218] | > 100000 | 705 ± 88.8 | 677 ± 13.8 | 587 ± 50.5 | 619 ± 48 | −19.1%* | −15 | −7 | % change in Ca2+ Kd vs control (negative = decrease) (SERCA2a; compound 1 nM): −3%
C[C@]12CC/C(=C\CCC(=O)O)CC1[C@@H](O)C[C@@H]1[C@@H]2CC[C@]2(C)C(=O)CC[C@@H]12 (stereo partly drawn) [CVie201, (E)-4-(6alpha-hydroxy-17-oxoandrostane-3-yliden)butyric acid] | > 100000 | – | – | – | – | −15%* | – | −14 | Kd (SERCA2a; [9]): 459 ± 57.1 nM; Kd (SERCA2a; [10]): 454 ± 53.2 nM
C[C@]12CC/C(=C/CC3CNC3)CC1[C@@H](O)C[C@@H]1[C@@H]2CC[C@]2(C)C(=O)CC[C@@H]12 (stereo partly drawn) [CVie206, (Z)-3-[2-(azetidin-3-yl)ethyliden]-6alpha-hydroxyandrostane-17-one] | 5900 | – | – | 678 ± 86.7 | 667 ± 55.6 | −13.7%* | −15.1 | – | –
